ChEMBL document CHEMBL1154899, “Synthesis and biological evaluation of caffeic acid 3,4-dihydroxyphenethyl ester” (J Nat Prod, 2010)

Tests used:
Assay type in all cases: functional
HOP-92 = assay: Antiproliferative activity against human HOP92 cells assessed as cell growth at 50 uM by SRB assay; details: read-out: Activity
HCC 2998 [1] = assay: Antiproliferative activity against human HCC2998 cells assessed as cell growth at 50 uM by SRB assay; details: read-out: Activity
Malme-3M = assay: Antiproliferative activity against human MALME-3M cells assessed as cell growth at 50 uM by SRB assay; details: read-out: Activity
SF-295 [2] = assay: Antiproliferative activity against human SF295 cells assessed as cell growth at 5 uM by SRB assay; details: read-out: Activity
SK-MEL-5 = assay: Antiproliferative activity against human SK-MEL-5 cells assessed as cell growth at 5 uM by SRB assay; details: read-out: Activity
UACC-257 = assay: Antiproliferative activity against human UACC257 cells assessed as cell growth at 5 uM by SRB assay; details: read-out: Activity
UACC-62 = assay: Antiproliferative activity against human UACC62 cells assessed as cell growth at 5 uM by SRB assay; details: read-out: Activity
OVCAR-3 = assay: Antiproliferative activity against human OVCAR-3 cells assessed as cell growth at 5 uM by SRB assay; details: read-out: Activity
OVCAR-8 [3] = assay: Antiproliferative activity against human OVCAR8 cells assessed as cell growth at 5 uM by SRB assay; details: read-out: Activity
786-0 = assay: Antiproliferative activity against human 786-0 cells assessed as cell growth at 5 uM by SRB assay; details: read-out: Activity
MDA-MB-435 = assay: Antiproliferative activity against human MDA-MB-435 cells assessed as cell growth at 500 uM by SRB assay; details: read-out: Activity
BT-549 = assay: Antiproliferative activity against human BT549 cells assessed as cell growth at 500 uM by SRB assay; details: read-out: Activity
HL-60(TB) = assay: Antiproliferative activity against human HL-60(TB) cells assessed as cell growth at 5 mM by SRB assay; details: read-out: Activity
HOP-62 = assay: Antiproliferative activity against human HOP62 cells assessed as cell growth at […] by SRB assay; details: read-out: Activity
T47D [4] = assay: Antiproliferative activity against human T47D cells assessed as cell growth at 5 uM by SRB assay; details: read-out: Activity
NCI-H460 [5] = assay: Antiproliferative activity against human NCI-H460 cells assessed as cell growth at 5 mM by SRB assay; details: read-out: Activity
HCC 2998 [6] = assay: Antiproliferative activity against human HCC2998 cells assessed as cell growth at […] by SRB assay; details: read-out: Activity
HT-29 = assay: Antiproliferative activity against human HT-29 cells assessed as cell growth at […] by SRB assay; details: read-out: Activity
NCI-H23 [7] = assay: Antiproliferative activity against human NCI-H23 cells assessed as cell growth at 500 uM by SRB assay; details: read-out: Activity
NCI-H322M [8] = assay: Antiproliferative activity against human NCI-H322M cells assessed as cell growth at 500 uM by SRB assay; details: read-out: Activity
NCI-H460 [9] = assay: Antiproliferative activity against human NCI-H460 cells assessed as cell growth at 500 uM by SRB assay; details: read-out: Activity
HCT-15 = assay: Antiproliferative activity against human HCT15 cells assessed as cell growth at 500 uM by SRB assay; details: read-out: Activity
IGROV-1 = assay: Antiproliferative activity against human IGROV1 cells assessed as cell growth at 500 uM by SRB assay; details: read-out: Activity
MOLT-4 = assay: Antiproliferative activity against human MOLT4 cells by SRB assay
[10] = Antiproliferative activity against human […] cells by SRB assay
HCC 2998 [11] = assay: Antiproliferative activity against human HCC2998 cells by SRB assay
KM12 = assay: Antiproliferative activity against human KM12 cells by SRB assay
SF-295 [12] = assay: Antiproliferative activity against human SF295 cells by SRB assay
OVCAR-8 [13] = assay: Antiproliferative activity against human OVCAR8 cells by SRB assay
SK-OV-3 [14] = assay: Antiproliferative activity against human SKOV3 cells by SRB assay
CAKI-1 = assay: Antiproliferative activity against human Caki1 cells by SRB assay
NCI/ADR-RES = assay: Antiproliferative activity against human NCI/ADR-RES cells by SRB assay
SK-OV-3 [15] = assay: Antiproliferative activity against human SKOV3 cells assessed as cell growth at 0.5 uM by SRB assay; details: read-out: Activity
K562 = assay: Antiproliferative activity against human K562 cells assessed as cell growth at 0.5 uM by SRB assay; details: read-out: Activity
[16] = Antiproliferative activity against human […] cells assessed as cell growth at 0.5 uM by SRB assay; details: read-out: Activity
HCT-116 = assay: Antiproliferative activity against human HCT116 cells assessed as cell growth at 0.5 uM by SRB assay; details: read-out: Activity
U-251 = assay: Antiproliferative activity against human U251 cells assessed as cell growth at 0.5 uM by SRB assay; details: read-out: Activity
T47D [17] = assay: Antiproliferative activity against human T47D cells assessed as cell growth at 0.5 uM by SRB assay; details: read-out: Activity
NCI-H23 [18] = assay: Antiproliferative activity against human NCI-H23 cells assessed as cell growth at 5 uM by SRB assay; details: read-out: Activity
NCI-H322M [19] = assay: Antiproliferative activity against human NCI-H322M cells assessed as cell growth at 5 uM by SRB assay; details: read-out: Activity
[20] = read-out: LC50 (the source's name)
[21] = read-out: pLC50 (the source's name) (converted)

O=C(/C=C/c1ccc(O)c(O)c1)OCCc1ccc(O)c(O)c1
growth at 50 µM (HOP-92): 55% | growth at 50 µM (HCC 2998 [1]): 98% | growth at 50 µM (Malme-3M): 102% | growth at 5 µM (SF-295 [2]): 89% | growth at 5 µM (SK-MEL-5): 97% | growth at 5 µM (UACC-257): 92% | growth at 5 µM (UACC-62): 94% | growth at 5 µM (OVCAR-3): 99% | growth at 5 µM (OVCAR-8 [3]): 79% | growth at 5 µM (786-0): 98% | growth at 500 µM (MDA-MB-435): 48% | growth at 500 µM (BT-549): 60% | growth at 5000 µM (HL-60(TB)): -30% | growth (HOP-62): 38% | growth at 5 µM (T47D [4]): 102% | growth at 5000 µM (NCI-H460 [5]): 1% | growth (HCC 2998 [6]): 18% | growth (HT-29): 34% | growth at 500 µM (NCI-H23 [7]): 78% | growth at 500 µM (NCI-H322M [8]): 86% | growth at 500 µM (NCI-H460 [9]): 94% | growth at 500 µM (HCT-15): 38% | growth at 500 µM (IGROV-1): 35% | GI50 (MOLT-4; read-out: GI50): 3.06 µM | CC50 (MOLT-4; [20]): > 50 µM | TGI (MOLT-4; read-out: TGI): > 50 µM | GI50 (MOLT-4; read-out: pGI50 (converted)): 3.09 µM | CC50 (MOLT-4; [21]): > 50.1 µM | TGI (MOLT-4; read-out: pTGI): > 50.1 µM | GI50 ([10]; read-out: GI50): 0.63 µM | CC50 [10, 20]: > 50 µM | TGI ([10]; read-out: TGI): 8.48 µM | GI50 ([10]; read-out: pGI50 (converted)): 0.631 µM | CC50 [10, 21]: > 50.1 µM | TGI ([10]; read-out: pTGI (converted)): 8.51 µM | GI50 (HCC 2998 [11]; read-out: GI50): 14.6 µM | CC50 (HCC 2998 [11]; [20]): > 50 µM | TGI (HCC 2998 [11]; read-out: TGI): > 50 µM | GI50 (HCC 2998 [11]; read-out: pGI50 (converted)): 14.5 µM | CC50 (HCC 2998 [11]; [21]): > 50.1 µM | TGI (HCC 2998 [11]; read-out: pTGI): > 50.1 µM | GI50 (KM12; read-out: GI50): 7.92 µM | CC50 (KM12; [20]): > 50 µM | TGI (KM12; read-out: TGI): > 50 µM | GI50 (KM12; read-out: pGI50 (converted)): 7.94 µM | CC50 (KM12; [21]): > 50.1 µM | TGI (KM12; read-out: pTGI): > 50.1 µM | GI50 (SF-295 [12]; read-out: GI50): 16.1 µM | CC50 (SF-295 [12]; [20]): > 50 µM | TGI (SF-295 [12]; read-out: TGI): > 50 µM | GI50 (SF-295 [12]; read-out: pGI50 (converted)): 16.2 µM | CC50 (SF-295 [12]; [21]): > 50.1 µM | TGI (SF-295 [12]; read-out: pTGI): > 50.1 µM | GI50 (OVCAR-8 [13]; read-out: GI50): 9.32 µM | CC50 (OVCAR-8 [13]; [20]): > 50 µM | TGI (OVCAR-8 [13]; read-out: TGI): > 50 µM | GI50 (OVCAR-8 [13]; read-out: pGI50 (converted)): 9.33 µM | CC50 (OVCAR-8 [13]; [21]): > 50.1 µM | TGI (OVCAR-8 [13]; read-out: pTGI): > 50.1 µM | GI50 (SK-OV-3 [14]; read-out: GI50): 13.7 µM | CC50 (SK-OV-3 [14]; [20]): > 50 µM | TGI (SK-OV-3 [14]; read-out: TGI): > 50 µM | GI50 (SK-OV-3 [14]; read-out: pGI50 (converted)): 13.2 µM | CC50 (SK-OV-3 [14]; [21]): > 50.1 µM | TGI (SK-OV-3 [14]; read-out: pTGI): > 50.1 µM | GI50 (CAKI-1; read-out: GI50): 10.6 µM | CC50 (CAKI-1; [20]): > 50 µM | TGI (CAKI-1; read-out: TGI): > 50 µM | GI50 (CAKI-1; read-out: pGI50 (converted)): 10.5 µM | CC50 (CAKI-1; [21]): > 50.1 µM | TGI (CAKI-1; read-out: pTGI): > 50.1 µM | GI50 (NCI/ADR-RES; read-out: GI50): 10.9 µM | CC50 (NCI/ADR-RES; [20]): > 50 µM | TGI (NCI/ADR-RES; read-out: TGI): 44.9 µM | GI50 (NCI/ADR-RES; read-out: pGI50 (converted)): 10.5 µM | CC50 (NCI/ADR-RES; [21]): > 50.1 µM | TGI (NCI/ADR-RES; read-out: pTGI (converted)): 44.7 µM | growth at 0.5 µM (SK-OV-3 [15]): 99% | growth at 0.5 µM (K562): 107% | growth at 0.5 µM [16]: 86% | growth at 0.5 µM (HCT-116): 100% | growth at 0.5 µM (U-251): 102% | growth at 0.5 µM (T47D [17]): 98% | growth at 5 µM (NCI-H23 [18]): 95% | growth at 5 µM (NCI-H322M [19]): 92%
